Data: the supplement of paper PMC11061612

Columns and labels:
[1] = system: SNU-398 (Hepatocellular Carcinoma); test: combination Emax (second highest fraction inhibited in the dose matrix, 72 h); higher = more inhibition; extreme values may be limits of the assay
In short: (§1)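 Cell lines in DMEM/F12 or RPMI with 10% FBS were plated in 1536-well plates, held 24 hours at 37°C, 5% CO2, then given two-drug dose matrices for 72 hours (DMSO typically 0.2%). Viability was read by CellTiter-Glo 2.0 luminescence and scaled as inhibition from 0 (vehicle wells) to 1 (blank wells). Combination Emax is the second-highest inhibition in the matrix; Bliss excess is observed combination effect minus expected EA + EB − EA·EB, EA and EB being single-agent effects.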

[2] = system: DMS-114 (Small Cell Lung Carcinoma); test: as above
In short: as §1

[3] = system: HCC1187 (Breast Carcinoma); test: as above
In short: as §1

[4] = system: VMRC-RCZ (Kidney Carcinoma); test: as above
In short: as §1

M059J (Glioblastoma) = test: as above
In short: as §1

[5] = system: NCI-H3122 (Lung Adenocarcinoma); test: as above
In short: as §1

[6] = system: CW-2 (Colorectal Carcinoma); test: as above
In short: as §1

RD (Rhabdomyosarcoma) = test: as above
In short: as §1

[7] = system: SU-DHL-5 (B-Cell Non-Hodgkin's Lymphoma); test: as above
In short: as §1

[8] = system: DAN-G (Pancreatic Carcinoma); test: as above
In short: as §1

[9] = system: ESO51 (Esophageal Adenocarcinoma); test: as above
In short: as §1

[10] = system: T-T (Esophageal Squamous Cell Carcinoma); test: as above
In short: as §1

[11] = system: SK-GT-4 (Esophageal Adenocarcinoma); test: as above
In short: as §1

[12] = system: KYSE-270 (Esophageal Squamous Cell Carcinoma); test: as above
In short: as §1

[13] = system: SK-GT-2 (Gastric Carcinoma); test: as above
In short: as §1

[14] = system: COR-L279 (Small Cell Lung Carcinoma); test: as above
In short: as §1

NCI-H2731 (Mesothelioma) = test: as above
In short: as §1

[15] = system: MN-60 (B-Lymphoblastic Leukemia); test: as above
In short: as §1

[16] = system: NCI-H661 (Non-Small Cell Lung Carcinoma); test: as above
In short: as §1

[17] = system: IM-95 (Gastric Carcinoma); test: Bliss excess, mean over the matrix (fraction); higher = more synergy;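 further: after 72 h of two-drug dosing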
In short: as §1

Compound | combination Emax [1] | combination Emax [2] | combination Emax [3] | combination Emax [4] | combination Emax (M059J (Glioblastoma)) | combination Emax [5] | combination Emax [6] | combination Emax (RD (Rhabdomyosarcoma)) | combination Emax [7] | combination Emax [8] | combination Emax [9] | combination Emax [10] | combination Emax [11] | combination Emax [12] | combination Emax [13] | combination Emax [14] | combination Emax (NCI-H2731 (Mesothelioma)) | combination Emax [15] | combination Emax [16] | Bliss excess [17]
CC(=O)Nc1cccc(-n2c(=O)n(C3CC3)c(=O)c3c(Nc4ccc(I)cc4F)n(C)c(=O)c(C)c32)c1 [Trametinib] + Cc1nc(-c2cn3c(n2)-c2ccc(-c4cnn(C(C)(C)C(N)=O)c4)cc2OCC3)n(C(C)C)n1 [Taselisib] (first compound max 1 µM, 7x7, partner max 10 µM) | 0.56 | 0.668 | 0.456 | 0.308 | 0.713 | 0.99 | 0.565 | 0.972 | 1 | 0.999 | 0.987 | 0.903 | 0.954 | 0.8 | 0.723 | 0.661 | 0.498 | 0.42 | 0.457 | 0.196
CC1(C)CCC(CN2CCN(c3ccc(C(=O)NS(=O)(=O)c4ccc(NCC5CCOCC5)c([N+](=O)[O-])c4)c(Oc4cnc5[nH]ccc5c4)c3)CC2)=C(c2ccc(Cl)cc2)C1 [Venetoclax] + C1CN(CCC1(C(=O)N[C@@H](CCO)C2=CC=C(C=C2)Cl)N)C3=NC=NC4=C3C=CN4 [Capivasertib] (first compound max 1 µM, 7x7, partner max 3 µM) | 0.217 | 0.24 | 0.183 | 0.206 | 0.396 | 0.362 | 0.163 | 0.198 | 0.915 | 0.195 | 0.11 | 0.221 | 0.484 | 0.711 | 0.162 | 0.418 | 0.27 | 0.293 | 0.192 | -0.0067
CC1(C)CCC(CN2CCN(c3ccc(C(=O)NS(=O)(=O)c4ccc(NCC5CCOCC5)c([N+](=O)[O-])c4)c(Oc4cnc5[nH]ccc5c4)c3)CC2)=C(c2ccc(Cl)cc2)C1 [Venetoclax] + C=CCn1c(=O)c2cnc(Nc3ccc(N4CCN(C)CC4)cc3)nc2n1-c1cccc(C(C)(C)O)n1 [AZD1775] (first compound max 1 µM, partner max 1 µM) | 0.711 | 0.437 | 0.442 | 0.467 | 0.713 | 0.734 | 0.311 | 0.546 | 0.986 | 0.747 | 0.647 | 0.711 | 0.715 | 0.946 | 0.597 | 0.746 | 0.286 | 0.305 | 0.63 | 0.0197
CC1(C)CCC(CN2CCN(c3ccc(C(=O)NS(=O)(=O)c4ccc(NCC5CCOCC5)c([N+](=O)[O-])c4)c(Oc4cnc5[nH]ccc5c4)c3)CC2)=C(c2ccc(Cl)cc2)C1 [Venetoclax] + CCN(CCO)CCCOc1ccc2c(Nc3cc(CC(=O)Nc4cccc(F)c4)[nH]n3)ncnc2c1 [AZD2811] (first compound max 1 µM, 7x7, partner max 1 µM) | 0.515 | 0.207 | 0.886 | 0.178 | 0.375 | 0.33 | 0.177 | 0.172 | 0.778 | 0.21 | 0.117 | 0.181 | 0.409 | 0.716 | 0.155 | 0.833 | 0.211 | 0.297 | 0.143 | 0.104
CC1(C)CCC(CN2CCN(c3ccc(C(=O)NS(=O)(=O)c4ccc(NCC5CCOCC5)c([N+](=O)[O-])c4)c(Oc4cnc5[nH]ccc5c4)c3)CC2)=C(c2ccc(Cl)cc2)C1 [Venetoclax] + CN(C)CCCOc1ccc(-c2ccc3ncc4c(c3c2)n(C2CCOCC2)c(=O)n4C)cn1 [AZD0156] (first compound max 1 µM, 7x7, partner max 1 µM) | 0.234 | 0.245 | 0.173 | 0.14 | 0.169 | 0.264 | 0.174 | 0.161 | 0.455 | 0.264 | 0.147 | 0.204 | 0.392 | 0.785 | 0.155 | 0.522 | 0.145 | 0.285 | 0.122 | -0.0016
CC1(C)CCC(CN2CCN(c3ccc(C(=O)NS(=O)(=O)c4ccc(NCC5CCOCC5)c([N+](=O)[O-])c4)c(Oc4cnc5[nH]ccc5c4)c3)CC2)=C(c2ccc(Cl)cc2)C1 [Venetoclax] + COc1cc(Nc2ncc3c(n2)-c2ccc(Cl)cc2C(c2c(F)cccc2OC)=NC3)ccc1C(=O)O [Alisertib] (first compound max 1 µM, 7x7, partner max 10 µM) | 0.498 | 0.555 | 0.744 | 0.21 | 0.636 | 0.336 | 0.16 | 0.543 | 0.803 | 0.425 | 0.213 | 0.487 | 0.444 | 0.627 | 0.241 | 0.82 | 0.364 | 0.291 | 0.26 | 0.005
CC1(C)CCC(CN2CCN(c3ccc(C(=O)NS(=O)(=O)c4ccc(NCC5CCOCC5)c([N+](=O)[O-])c4)c(Oc4cnc5[nH]ccc5c4)c3)CC2)=C(c2ccc(Cl)cc2)C1 [Venetoclax] + C[C@@H]1COCCN1C2=NC(=NC(=C2)C3(CC3)[S@](=N)(=O)C)C4=C5C=CNC5=NC=C4 [AZD6738] (first compound max 1 µM, 7x7, partner max 10 µM) | 0.673 | 0.564 | 0.501 | 0.434 | 0.526 | 0.652 | 0.403 | 0.372 | 1 | 0.719 | 0.82 | 0.485 | 0.589 | 0.869 | 0.331 | 0.833 | 0.307 | 0.456 | 0.654 | -0.0191
CC1(C)CCC(CN2CCN(c3ccc(C(=O)NS(=O)(=O)c4ccc(NCC5CCOCC5)c([N+](=O)[O-])c4)c(Oc4cnc5[nH]ccc5c4)c3)CC2)=C(c2ccc(Cl)cc2)C1 [Venetoclax] + C[C@@H](Nc1cc(F)cc(F)c1)c1cc(C(=O)N(C)C)cc2c(=O)cc(N3CCOCC3)oc12 [AZD8186] (first compound max 1 µM, 7x7, partner max 3 µM) | 0.166 | 0.113 | 0.138 | 0.201 | 0.306 | 0.134 | 0.0925 | 0.265 | 0.984 | 0.0841 | 0.334 | 0.172 | 0.229 | 0.653 | 0.0218 | 0.394 | 0.107 | 0.418 | 0.164 | -0.068
CC1(C)CCC(CN2CCN(c3ccc(C(=O)NS(=O)(=O)c4ccc(NCC5CCOCC5)c([N+](=O)[O-])c4)c(Oc4cnc5[nH]ccc5c4)c3)CC2)=C(c2ccc(Cl)cc2)C1 [Venetoclax] + Cc1cc2ncnn2cc1Nc1ncc2c(n1)n(C1CCOCC1)c(=O)n2C [AZD7648] (first compound max 1 µM, 7x7, partner max 10 µM) | 0.29 | 0.315 | 0.142 | 0.112 | 0.279 | 0.387 | 0.163 | 0.183 | 0.687 | 0.363 | 0.131 | 0.172 | 0.374 | 0.675 | 0.155 | 0.372 | 0.157 | 0.299 | 0.16 | -0.0192
CC1(C)CCC(CN2CCN(c3ccc(C(=O)NS(=O)(=O)c4ccc(NCC5CCOCC5)c([N+](=O)[O-])c4)c(Oc4cnc5[nH]ccc5c4)c3)CC2)=C(c2ccc(Cl)cc2)C1 [Venetoclax] + Cn1cnc2c(F)c(Nc3ccc(Br)cc3Cl)c(C(=O)NOCCO)cc21 [Selumetinib] (first compound max 1 µM, 7x7, partner max 3 µM) | 0.352 | 0.0989 | 0.129 | 0.122 | 0.203 | 0.387 | 0.191 | 0.217 | 0.339 | 0.233 | 0.384 | 0.221 | 0.473 | 0.554 | 0.0541 | 0.213 | 0.0907 | 0.347 | 0.0912 | -0.0187
